# Source: publication PMC4855137, “Raffinose, a plant galactoside, inhibits Pseudomonas aeruginosa biofilm formation via binding to LecA and decreasing cellular cyclic diguanylate levels” (Scientific Reports, 2016)
# Key:
# LecA (PA-IL) [1] = target: T1, LecA (PA-IL) (Pseudomonas aeruginosa, UniProt Q05097); assay: isothermal titration calorimetry; CPMG NMR competition with raffinose; format: binding
# LecA (PA-IL) [2] = target: T1, LecA (PA-IL); assay: isothermal titration calorimetry; 1D relaxation-edited (CPMG) NMR with galactose competition; format: binding
# T1 sequence (Q05097 2-122): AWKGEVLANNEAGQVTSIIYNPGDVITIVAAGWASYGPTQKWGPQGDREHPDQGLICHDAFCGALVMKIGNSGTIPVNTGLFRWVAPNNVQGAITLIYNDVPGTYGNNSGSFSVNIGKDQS
SMILES,Kd (LecA (PA-IL) [1]) [µM],Kd (LecA (PA-IL) [2]) [µM]
OC[C@H]1OC(O)[C@H](O)[C@@H](O)[C@H]1O (stereo partly drawn) [D-galactose],47,
OC[C@H]1O[C@H](OC[C@H]2O[C@H](O[C@]3(CO)O[C@H](CO)[C@@H](O)[C@@H]3O)[C@H](O)[C@@H](O)[C@@H]2O)[C@H](O)[C@@H](O)[C@H]1O [raffinose],,32
